Assay [1] deals with AKT1 (Homo sapiens, UniProt P31749). The assay is described as follows: AKT1 binding site mapping by crosslinking and MS. Set-up: N-terminal vector leader of pEXP5-NT (6xHis + TEV site by own knowledge of the vector); made in house; host or cells: Expressway Mini Cell-Free Expression System (in vitro translation). To be noted: for region of AKT1 crosslinked: 10 µM peptide, 2.5 µM AKT1, 100 µM BS3-d0/d4 (1:1), trypsin, MALDI-TOF-MS; for likely binding site on AKT1: from relative intensity of fragments and proximity of lysines; for AKT1 lysine(s) likely cross-linked: surface-exposed lysines mapped on PDB 3CQU. From the text: As an orthogonal assessment of whether the peptides bind different sites on AKT1, each peptide was crosslinked to AKT1 in vitro using a commercially available set of deuterated / non-deuterated crosslinkers (BS^3-(d0/d4)). The crosslinkers chemically conjugate primary amines that are in close proximity to one another (11.4 Å) and the crosslinked complex is then subjected to enzymatic digestion and analysis by mass spectrometry. Crosslinked peptides are identified by the presence of a pair of ions that are separated by 4 mass units indicating crosslinking with both non-deuterated and deuterated crosslinkers. Peptide 1 has two possible crosslinking sites (N-terminus and K at position 3) and peptide 2 has one possible crosslinking site at the N-terminus. A 10 µM solution of each peptide was added to 2.5 µM AKT1 and incubated for 1 hour prior to the addition of a 100 µM solution of a 1∶1 mixture of crosslinkers. After crosslinking, the mixture was digested with trypsin and analyzed by MALDI-TOF-MS. […] The location of each AKT1 fragment was mapped onto a crystal structure of residues 139–480 of AKT1 (PDB #3CQU) (Figure 4C).
10 µM of peptide 1 and peptide 2 were individually incubated with 2.5 µM of recombinant AKT1 (produced in house) in PBS buffer (200 uL total volume) for one hour, after which an equimolar ratio of BS^3-d0∶BS^3-d4 (Thermo Scientific, Rockford, IL) crosslinker was added for a total crosslinker concentration of 100 µM. The same concentration of crosslinker was added to a 200 µL control sample containing only 2.5 µM AKT1. Crosslinking was performed for one hour. After crosslinking, free peptide and crosslinker were removed from the mixture with a 30 kDa spin filter and at the same time the buffer was exchanged with 100 mM ammonium bicarbonate pH 8.0. Proteomics grade trypsin (Sigma-Aldrich, St. Louis, MO) was added to all samples at a ratio of 1∶30 (mol∶mol) Trypsin∶AKT1 and incubated overnight at 37°C. Digested samples were lyophilized and reconstituted in 5 µL acetonitrile∶H2O (1∶1) containing 0.1% trifluoroacetic acid and spotted on a MALDI target plate along with ∝-cyano-4-hydroxycinnamic acid MALDI matrix. Mass spectra were obtained on an Ultraflex-III MALDI TOF-TOF (Bruker, Billerica, MA) and analyzed in FlexAnalysis (Bruker, Billerica, MA).

Assay [2] has as its target synbody variant in which the C-terminal Cys was replaced with a Lys-Biotin. Description: pull-down; IP: biotin synbody on streptavidin magnetic beads; ^35S-labeled AKT1 in the IVT mixture diluted from 41.5 nM to 80 pM (AKT1 about 3% of total protein); liquid scintillation counting; 1:1 fit in GraphPad Prism.

AKT1, sequence (P31749 whole entry, the tested form may be a part): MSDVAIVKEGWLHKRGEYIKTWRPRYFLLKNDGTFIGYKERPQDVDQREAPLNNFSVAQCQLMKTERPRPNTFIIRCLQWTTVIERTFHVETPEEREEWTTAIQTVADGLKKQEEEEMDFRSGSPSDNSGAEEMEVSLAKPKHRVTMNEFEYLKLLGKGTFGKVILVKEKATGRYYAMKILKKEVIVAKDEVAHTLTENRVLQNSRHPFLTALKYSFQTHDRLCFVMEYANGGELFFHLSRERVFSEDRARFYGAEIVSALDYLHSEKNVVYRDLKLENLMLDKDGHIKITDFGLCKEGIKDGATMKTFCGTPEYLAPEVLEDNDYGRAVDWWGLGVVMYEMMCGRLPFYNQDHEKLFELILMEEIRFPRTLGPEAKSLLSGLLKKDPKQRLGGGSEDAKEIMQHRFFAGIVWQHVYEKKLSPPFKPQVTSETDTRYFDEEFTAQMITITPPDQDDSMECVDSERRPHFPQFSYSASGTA
^35S-labeled AKT1 produced by in vitro translation, sequence (P31749 whole entry): as the sequence (P31749 whole entry, the tested form may be a part) above

As for “AHKVVPQRQIRHAYNRYGSG [peptide 1, 20-aa peptide arm of the synbody]”, in assay [1], the “region of AKT1 crosslinked” value is “crosslinked to a region of AKT1 that spans the Protein Kinase (PK) and AGC Kinase domain”; the “likely binding site on AKT1” value is “in a region of low homology between AKT1, AKT2, and AKT3”; the “AKT1 lysine(s) likely cross-linked” value is listed as “^419Lys”.

With “FRGWAHIFFGPHVIYRGGSG [peptide 2, 20-aa peptide arm of the synbody]”, in assay [1], the “region of AKT1 crosslinked” value is listed as “crosslinked to multiple regions on AKT1 (Figure 4A, Figure 4B, Table S1), with the majority of crosslinking occurring in the PK domain”; the “likely binding site on AKT1” value was “primary binding site for peptide 2 is likely on the PK domain and that a secondary binding site lies on the AGC domain”; the “AKT1 lysine(s) likely cross-linked” value is “^182Lys, ^276Lys, and ^481Lys”.

What is called Kd is the concentration at which binding is half-saturated. “^35S-labeled AKT1 produced by in vitro translation (from UniProt P31749 1-480) (natural protein)”: in assay [2], the dissociation constant Kd was 4.9 nM.

Source of the values: paper PMC2873402, “Discovery of High-Affinity Protein Binding Ligands – Backwards” (PLoS ONE, 2010).
